According to the NIST ThermoML archive (doi:10.1016/j.jct.2017.11.005):
Numbers after ± are expanded uncertainties.

Details: Gas, Capillary tube (Ostwald / Ubbelohde) method

**Q.** For `O=C=O` [carbon dioxide], which viscosity (308.2 K, 1200 kPa) is on record?
**A.** The viscosity was 0.0153 ± 0.0005 mPa·s.

**Q.** And the viscosity (308.2 K, 2070 kPa)?
**A.** The viscosity was 0.0154 ± 0.0005 mPa·s.

**Q.** What about the viscosity (308.2 K, 11330 kPa) of the same compound?
**A.** The viscosity was 0.0638 ± 0.0012 mPa·s.

**Q.** What about the viscosity (308.2 K, 22090 kPa) of the same compound?
**A.** Its viscosity is 0.0882 ± 0.0017 mPa·s.

**Q.** And the viscosity (308.2 K, 34970 kPa)?
**A.** The viscosity was 0.1068 ± 0.0021 mPa·s.

**Q.** What about the viscosity (308.2 K, 68930 kPa) of the same compound?
**A.** Its viscosity is 0.1441 ± 0.0028 mPa·s.

**Q.** What about the viscosity (308.2 K, 101200 kPa) of the same compound?
**A.** The viscosity was 0.1733 ± 0.0036 mPa·s.

**Q.** What about the viscosity (308.2 K, 150520 kPa) of the same compound?
**A.** The viscosity was 0.222 ± 0.0047 mPa·s.

**Q.** And the viscosity (323.2 K, 1270 kPa)?
**A.** Its viscosity is 0.0161 ± 0.0005 mPa·s.

**Q.** And the viscosity (323.2 K, 2050 kPa)?
**A.** Its viscosity is 0.0163 ± 0.0005 mPa·s.

**Q.** And the viscosity (323.2 K, 5040 kPa)?
**A.** The viscosity was 0.0174 ± 0.0005 mPa·s.

**Q.** What about the viscosity (323.2 K, 11440 kPa) of the same compound?
**A.** The viscosity was 0.0398 ± 0.001 mPa·s.

**Q.** What about the viscosity (323.2 K, 20670 kPa) of the same compound?
**A.** Its viscosity is 0.0711 ± 0.0015 mPa·s.

**Q.** And the viscosity (323.2 K, 50820 kPa)?
**A.** The viscosity was 0.112 ± 0.0024 mPa·s.

**Q.** What about the viscosity (323.2 K, 105530 kPa) of the same compound?
**A.** The viscosity was 0.1606 ± 0.0035 mPa·s.

**Q.** What about the viscosity (323.2 K, 150430 kPa) of the same compound?
**A.** Its viscosity is 0.1953 ± 0.0043 mPa·s.
